Test results: patent US8853263B2, “Co-therapy for the treatment of epilepsy and related disorders” (Janssen Pharmaceutica NV, priority 2006, dated 2014)

For `CN(C)S(=O)(=O)NCC1COc2ccccc2O1` (racemic) [Compound #6, N-(2,3-Dihydro-benzo[1,4]dioxin-2-ylmethyl)-N′,N′dimethylsulfamide], which melting point is on record?
The melting point was 76 to 78 °C.

For `NS(=O)(=O)NCC1CCc2ccccc2O1` (stereo not shown) [Compound #10, Chroman-2-ylmethylsulfamide], which melting point is on record?
The melting point was 100 to 101 °C.

For `NS(=O)(=O)NCCC1COc2ccccc2O1` (stereo not shown) [Compound #16, 2-(2,3-Dihydro-benzo[1,4]dioxin-2-yl)-ethylsulfamide], which melting point is on record?
Its melting point is 101 to 103 °C.

Which melting point does the source give for `NS(=O)(=O)NC[C@H]1COc2cc(Cl)c(Cl)cc2O1` [Compound #29, (2S)-(−)-N-(6,7Dichloro-2,3-dihydro-benzo[1,4]dioxin-2-ylmethyl)-sulfamide] here?
Its melting point is 119 to 121 °C.
